These are literature values, as cited in US20030162725A1, “Synergistic pharmaceutical combinations for treating obesity with EGCG” (priority 2002, published 2003).

For this series, the system named is mouse.

`N[C@@H](Cc1c[nH]c2ccc(O)cc12)C(=O)O` [5-HTP, 5-hydroxytryptophan]: the LD50 i.p. (i.p., species not restated (studies in the rat and mouse)) was 1400 mg/kg. In addition, the LD50 per os (per os in the mouse) is reported as 2500 mg/kg.
